# Legend:
# [1] = tested on: frog heart; experiment: Isolated frog heart preparation, heart rate; conditions: adenosine 30 µM
# Procedure: Young adult male Xenopus leavis frogs were obtained from Portsmouth Xenopus Resource Centre. […] The animals were dissected to reveal the heart and the pericardium was carefully removed. Heart contractions were measured with a force transducer (AD instruments). Heart rate was acquired via a PowerLab 26 T (AD instruments) controlled by LabChart 7 (AD instruments). The heart was regularly washed with Ringer solution and drugs were applied directly to the heart.
# [2] = tested on: heart rate and mean arterial blood pressure; experiment: Urethane-anaesthetised rat, heart rate and arterial blood pressure; conditions: adenosine 1 mg kg^−1 IV
# Description: Anaesthesia was induced in adult male Sprague–Dawley rats (230-330 g) with isofluorane (2–4%; Piramal Healthcare). The femoral vein was catheterised for drug delivery. Anaesthesia was maintained with urethane (1.2–1.7 g kg^−1; Sigma) in sterile saline delivered via the femoral vein catheter. […] The trachea was cannulated and the femoral artery catheterised, and both were connected to pressure transducers (Digitimer) to record respiratory airflow and arterial blood pressure, respectively. Blood pressure and airflow signals were amplified using the NeuroLog system (Digitimer) connected to a micro1401 interface and acquired on a computer using Spike2 software (v7.08a; Cambridge Electronic Design). […] Airflow measurements were used to calculate: tidal volume (VT; mL; pressure sensors were calibrated with a 3 mL syringe), and respiratory frequency (f; breaths min^−1; BrPM). Minute ventilation (VE; mL min^−1) was calculated as f × VT.
# Cardiovascular and respiratory parameters were allowed to stabilise before experiments began. A1R agonists were administered by intravenous (IV) injection and the changes in HR, MAP, f, VT, and VE were measured. […] All injections were administered IV as a 350 µl·kg^-1 bolus.
# [3] = tested on: CA1 pyramidal cells (Goa / Gob signalling); experiment: Whole-cell voltage-clamp, adenosine-induced outward current with intracellular G protein interfering peptides; type: cell-based, rat; conditions: adenosine 10 µM; control conditions
# Procedure: A slice was transferred to the recording chamber and perfused at 3 ml min^−1 with aCSF at 32 ± 0.5 °C. Slices were visualised using IR-DIC optics with an Olympus BX151W microscope (Scientifica) and a CCD camera (Hitachi). […] Voltage and current recordings were obtained using an Axon Multiclamp 700B amplifier (Molecular Devices, USA) and digitised at 20 KHz. Data acquisition and analysis was performed using pClamp 10 (Molecular Devices, USA). For voltage-clamp experiments, CA1 pyramidal cells were held at −60 mV. Peptides to interfere with G protein signalling were introduced via the patch pipette into the recorded cell.
# Drugs were made up as stock solutions (1-10 mM) and then diluted in aCSF or saline on the day of use. […] MRS1523 was purchased from Cayman Chemicals (Cambridge Bioscience Ltd., Cambridge UK). […] CA200645 and peptides for interfering with G protein signalling were obtained from Hello Bio (Bristol, UK) and were based on published sequences. […] The scrambled version was […]. […] Peptides were made up as stock solutions (2 mM) and stored at −20 °C. The stock solutions were dissolved in filtered intracellular solution just before use.
# [4] = molecular target: T1, rA3R (Rattus norvegicus, UniProt P28647); experiment: NanoBRET competition binding with AV039; conditions: displacement of AV039; read-out: pKi rA3R (converted)
# T1 construct: expressed in transfected cells; host or cells: Flp-In-CHO (ThermoFisher R75807), pcDNA5/FRT
# T1 sequence (P28647 1-320): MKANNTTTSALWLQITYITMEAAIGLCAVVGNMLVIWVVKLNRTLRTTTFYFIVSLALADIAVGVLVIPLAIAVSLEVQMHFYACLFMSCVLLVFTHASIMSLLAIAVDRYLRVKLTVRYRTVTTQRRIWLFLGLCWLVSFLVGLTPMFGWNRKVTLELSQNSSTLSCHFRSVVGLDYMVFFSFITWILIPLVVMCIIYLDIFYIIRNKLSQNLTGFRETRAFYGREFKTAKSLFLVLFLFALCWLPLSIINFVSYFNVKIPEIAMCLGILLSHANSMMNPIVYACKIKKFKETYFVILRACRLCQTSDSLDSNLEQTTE
# Procedure: Here data was fitted with the ‘two-site Ki model’, build into Prism to determine high affinity and low affinity values for the unlabelled agonists. […] BRET was measured following the addition of the Nluc substrate, Furimazine (0.1 μM).
# [5] = tested on: native presynaptic A1Rs, rat hippocampal slices; experiment: Extracellular fEPSP recording, inhibition of excitatory synaptic transmission in hippocampal slices; type: cell-based
# Procedure: Rats were kept on a 12-hour light-dark cycle with slices made 90 min after entering the light cycle. […] The brain was removed, cut down the midline and the two sides of the brain stuck down to a metal base plate using cyanoacrylate glue. […] Slices were stored at 34 °C for 1–6 h in aCSF (1 mM MgCl2, 2 mM CaCl2) before use.
# A slice was transferred to the recording chamber, submerged in aCSF and perfused at 4–6 ml min^−1 (32 ± 0.5 °C). The slice was placed on a grid allowing perfusion above and below the tissue and all tubing was gastight (to prevent loss of oxygen). […] Field excitatory postsynaptic potentials (fEPSPs) were evoked with either an isolated pulse stimulator model 2100 (AM Systems, WA) or ISO-Flex (AMPI, Jerusalem, Israel). For fEPSPs a 10–20 min baseline was recorded at a stimulus intensity that gave 40-50% of the maximal response. […] For fEPSP slope, a 1 ms linear region after the fibre volley was measured. Extracellular recordings were made independently on two electrophysiology rigs.
# Statistical significance was tested as indicated in the text using paired or unpaired two-tailed t-tests or one-way or two-way ANOVAs with repeated measures (RM) as appropriate. Bonferroni corrections for multiple comparisons were performed. All in vitro cell signalling assay data was analysed using Prism 8.4 (Graphpad software, San Diego, CA), with all concentration-response curves being fitted using a 3 parameter logistic equation to calculate response range and IC50. All cAMP data was normalised to a forskolin concentration-response curve ran in parallel to each assay.
# [6] = molecular target: T1, rA3R; experiment: cAMP inhibition at rA3R (Flp-In-CHO); type: cell-based
# Description: Cell lines were maintained using standard subculturing routines as guided by the European Collection of Cell Culture (ECACC) and checked annually for mycoplasma infection using an EZ-PCR mycoplasma test kit from Biological Industries (Kibbutz Beit-Haemek, Israel). To investigate the signalling properties of the rat A3R (rA3R) and mutants of the human A1R (hA1R), stable cell lines were generated using Flp-In-CHO cells (ThermoFisher - R75807). Untagged hA1R from sigNanoLuciferase (Nluc)-A1R in pcDNA3.1+ and untagged rA3R from sigNluc-A3R in pcDNA3.1 + (both gifted by Dr Steve Briddon (University of Nottingham)) were cloned into the pcDNA5/FRT expression vector (Thermo Fisher Scientific). Mutations within the hA1R were made using the QuikChange Lightening Site-Directed Mutagenesis Kit (Agilent Technologies) in accordance with the manufacturer’s instructions. Constructs for generating Goa/b interfering and scrambled peptides were generated by PCR and cloned into the BamHI/HindIII site of pcDNA3.1- as described in Gilchrist et al.[60],. Prior to the initiator codon a Kozak sequence was included for enhanced translation. The peptide sequences used were: for Goa […], for Gob […], and for the scrambled peptide […] was used. Constructs were sequenced to confirm fidelity. Flp-In-CHO cells were generated through co-transfection of the cell line with pcDNA5/FRT expression vector (Thermo Fisher Scientific) containing the WT or mutant hA1R, or rA3R, and the Flp recombinase expressing plasmid, pOG44 (Thermo Fisher Scientific), in accordance with the manufacturer’s instructions. […] CHO cell lines expressing ARs of interest (including mutants of the hA1R) were routinely cultured in Ham’s F-12 nutrient mix supplemented with 10% foetal bovine serum (FBS), at 37 °C with 5% CO2, in a humidified atmosphere.
# [7] = molecular target: T2, β-arrestin2 recruitment to hA3R (Homo sapiens, UniProt P0DMS8); experiment: BRET β-arrestin2 recruitment to A3R, HEK 293T; type: cell-based
# T2 construct: expressed in transfected cells; host or cells: HEK 293T (ATCC CRL-3216), transient
# T2 sequence (P0DMS8 whole entry): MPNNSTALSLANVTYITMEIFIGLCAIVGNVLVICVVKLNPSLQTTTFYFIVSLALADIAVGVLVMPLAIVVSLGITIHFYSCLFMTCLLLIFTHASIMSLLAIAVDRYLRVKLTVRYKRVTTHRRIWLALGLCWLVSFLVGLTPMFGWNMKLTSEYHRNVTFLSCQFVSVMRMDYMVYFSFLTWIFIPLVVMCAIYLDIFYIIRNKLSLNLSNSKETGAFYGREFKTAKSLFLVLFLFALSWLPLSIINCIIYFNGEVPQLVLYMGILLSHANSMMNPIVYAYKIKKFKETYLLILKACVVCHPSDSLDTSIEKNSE
# [8] = in vitro; conditions: human, plasma
# Procedure: (§1) At the end of incubation at each of the time points (0, 0.5, 1, 1.5, 2 h), acetonitrile was added to the incubation mixture followed by centrifugation. Samples were analysed by HPLC-MS/MS and peak areas were recorded for each analyte. The area of precursor compound remaining after each of the time points relative to the amount remaining at time 0, expressed as a percentage, was calculated. Subsequently, the t1/2 is estimated from the slope of the initial linear range of the logarithmic curve of compound remaining (%) versus time, assuming first-order kinetics.
# [9] = Half-life determination in human plasma; conditions: UoBern01 at 1.00E-06 M
# Procedure: as §1
# [10] = Half-life determination in PBS; type: physicochemical; conditions: PBS, pH 7.4
# Procedure: […] Samples were analysed by HPLC-MS/MS and corresponding peak areas were recorded for each analyte. The ratio of precursor compound remaining after each time-point relative to the amount present at time 0, expressed as a percentage, is reported as chemical stability.
# [11] = incubation 0 minutes, UoBern01 at 1.00E-06 M
# [12] = incubation 60 minutes, UoBern01 at 1.00E-06 M
# [13] = incubation 120 minutes, UoBern01 at 1.00E-06 M
compound,measurement,setting,value
Nc1ncnc2c1ncn2[C@@H]1O[C@H](CO)[C@@H](O)[C@H]1O [Adenosine],reduction of heart rate,[1],6.3 ± 0.6 BPM
same,heart rate after application,[1]; before 41.8 ± 1.3 BPM,35.5 ± 1.3 BPM
same,reduction of HR,[2],~ 66%
same,reduction of MAP,[2],~ 47%
same,MAP after injection,[2]; resting 86 ± 9 mm Hg,46 ± 4 mm Hg
same,HR after injection,[2]; resting 432 ± 21 BPM,147 ± 12 BPM
same,outward current induced by adenosine,[3],40.6 ± 2.2 pA
same,Ki,[4],1290 nM
same,IC50,"[5]; Rattus norvegicus, read-out: IC50 inhibition of synaptic transmission",20000 ± 4300 nM
same,depression of the fEPSP,[5]; adenosine 30 µM,66.7 ± 6.7%
same,depression of the fEPSP,[5]; adenosine 30 µM in the presence of 2-Cl-IB-MECA 1 µM,67.5 ± 6.5%
same,IC50,"[6]; half-maximal response, cAMP inhibition, read-out: pIC50 rA3R (converted)",67.6 nM
same,Range rA3R,[6]; range of response as percentage of response to 10 μM forskolin,66.05 ± 5.4%
same,β-arrestin2 recruitment by the A3R,[7],β-arrestin2 recruitment
CC(C)[N+](C)(CCOC(=O)C1c2ccccc2Oc2ccccc21)C(C)C [Propantheline],half-life,[8],46.9 min
same,2nd / Half-Life,[9],50.4 min
same,Mean / Half-Life,[9],49 min
same,1st / % Compound Remaining,[9]; incubation 0 minutes,100%
same,2nd / % Compound Remaining,[9]; incubation 0 minutes,100%
same,Mean / % Compound Remaining,[9]; incubation 0 minutes,100%
same,1st / % Compound Remaining,[9]; incubation 30 minutes,69.6%
same,2nd / % Compound Remaining,[9]; incubation 30 minutes,53.9%
same,Mean / % Compound Remaining,[9]; incubation 30 minutes,61.7%
same,1st / % Compound Remaining,[9]; incubation 60 minutes,44.8%
same,2nd / % Compound Remaining,[9]; incubation 60 minutes,36.9%
same,Mean / % Compound Remaining,[9]; incubation 60 minutes,40.9%
same,1st / % Compound Remaining,[9]; incubation 90 minutes,29.3%
same,2nd / % Compound Remaining,[9]; incubation 90 minutes,22.6%
same,Mean / % Compound Remaining,[9]; incubation 90 minutes,26%
same,1st / % Compound Remaining,[9]; incubation 120 minutes,16.8%
same,2nd / % Compound Remaining,[9]; incubation 120 minutes,19.6%
same,Mean / % Compound Remaining,[9]; incubation 120 minutes,18.2%
same,Mean / Half-Life,[10]; UoBern01 at 1.00E-06 M,>120 min
same,1st / % Compound Remaining,[10]; [11],100%
same,2nd / % Compound Remaining,[10]; [11],100%
same,Mean / % Compound Remaining,[10]; [11],100%
same,1st / % Compound Remaining,[10]; incubation 30 minutes,95.1%
same,2nd / % Compound Remaining,[10]; incubation 30 minutes,97.9%
same,Mean / % Compound Remaining,[10]; incubation 30 minutes,96.5%
same,1st / % Compound Remaining,[10]; [12],{129.3} %
same,2nd / % Compound Remaining,[10]; [12],96.1%
same,Mean / % Compound Remaining,[10]; [12],96.1%
same,1st / % Compound Remaining,[10]; incubation 90 minutes,86.5%
same,2nd / % Compound Remaining,[10]; incubation 90 minutes,89.2%
same,Mean / % Compound Remaining,[10]; incubation 90 minutes,87.8%
same,1st / % Compound Remaining,[10]; [13],{72.3} %
same,2nd / % Compound Remaining,[10]; [13],76.6%
same,Mean / % Compound Remaining,[10]; [13],76.6%
same,half-life,[10]; read-out: 1st / Half-Life,> 120 min

# Reference: publication PMC9293909 (Nature Communications, 2022)
